Non-standard residues stand in square brackets, D forms with d. No end group written: not given here.
Experiments:
HUVEC [1] = experiment: Test system for apoptotically active peptides: TSP-1-induced apoptosis of cultivated HUVEC, DAPI dyeing; type: cell-based, human
Method: For the purposes of the disclosure, the term “apoptotically active” will mean that the addition of the respective substance to the test system shown in Examples 5 and 6 generates either a positive or negative inhibition index. Particularly endothelial cells, preferably especially HUVEC, are to this end cultivated in a medium which includes 1 μg TSP-1 per ml. The percentage apoptosis values of such positive control will then serve, as shown in the examples, for the calculation of the inhibition index for those substances which are used as potential inhibitors together with the inductor TSP-1 in parallel tests.
(§1) Cultivation of HUVEC takes place in gelatin-coated culture vessels at 37° C., 5% CO2 and water vapor saturated atmosphere. The culture medium is exchanged every two to three days; in case of confluence, the cells are passaged at a cleavage rate of from 1:3 to 1:5. HUVEC grow strictly contact-inhibited and form unilaminar cell bed having the typical cobble-stone morphology. In case of confluence, the cultures reach cell densities of 4-9×10^4 cells/cm^2. For apoptosis examinations, HUVEC cultures of passages 1-4 are exclusively employed.
(§2) The culture supernatant of a Petri dish is sucked off, the cell bed is fixed on ice for 15 minutes with 1 ml formaldehyde solution, is washed twice with 2 ml PBS, is added 0.5 ml DAPI solution for 15 minutes, is washed with PBS and evaluated under the fluorescence microscope. A UV filter set and a 20× and a 40× objective are used. 500 to 1000 cells are selected at random and the cells having apoptotic nuclei are counted.
(§3) The apoptosis index is calculated in accordance with the following formula: Apoptosis index [%]=number of apoptotic cells/total cell number×100 Flow Cytometry: Solutions: • PBS • Medium • Ethanol (reagent-grade) ice-cooled (−20° C.) • DAPI buffer • DAPI stock solution • DAPI dye solution Procedure:
The culture supernatant is sucked off and the cells are trypsinized without washing them with PBS. The cell suspension is received in medium, is counted, is centrifuged at 800×g for 5 minutes, the sediment is re-suspended in 0.5 ml IF and is dripped into 1.5 ml ice-cold ethanol. The suspension is stored overnight at […]. After renewed centrifugation and re-suspending of the sediment in 2 ml PBS, there follows a half-hour incubation at 37° C., further centrifugation, re-suspending of the sediment in 5 ml DAPI solution, and counting in the flow cytometer at a counting rate of 50 to 300 events per second. […] Caused by the decreasing absolute DNS amount per cell, apoptotic cells appear in a sub-G1 peak [Darzynklewicz Z. et al., Cytometry, 13, 795-808 (1992); Zamai L. et al., Cytometry, 14, 891-897 (1993)].
The cells were cultivated as described in Example 1. The cells are seeded in the corresponding culture vessels (e.g. 24-hole plate/0.5 ml per cavity) and, having obtained complete confluence, are employed for the test. The cells are provided with new medium: • (a) fresh culture medium [Base rate of apoptosis], • (b) fresh medium with 1 μg/ml TSP-1 [Apoptosis-induced substance; control], • (c) medium (b)+peptide of SEQ ID NO 1, 1 mM • (d) medium (b)+peptide of SEQ ID NO 2, 1 mM • (e) medium (b)+peptide of SEQ ID NO 3, 1 mM • (f) medium (b)+peptide of SEQ ID NO 4, 1 mM • (g) medium (b)+peptide of SEQ ID NO 7, 1 mM • (h) medium (b)+peptide of SEQ ID NO 8, 1 mM • (i) medium (b)+peptide of SEQ ID NO 9, 1 mM • (j) medium (b)+peptide of SEQ ID NO 10, 1 mM • (k) medium (b)+peptide of SEQ ID NO 11, 1 mM • (l) medium (b)+peptide of SEQ ID NO 12, 1 mM • (m) medium (b)+peptide of SEQ ID NO 13, 1 mM • (n) medium (b)+peptide of SEQ ID NO 14, 1 mM • (o) medium (b)+peptide of SEQ ID NO 15, 1 mM • (p) medium (b)+peptide of SEQ ID NO 16, 1 mM • (q) medium (b)+peptide of SEQ ID NO 17, 1 mM • (r) medium (b)+peptide of SEQ ID NO 18, 1 mM • (s) medium (b)+peptide of SEQ ID NO 19, 1 mM […]

HUVEC [2] = experiment: Induction of apoptosis at HUVEC with TSP-1; type: cell-based, human; conditions: confluent HUVEC, fresh medium + TSP-1 1 μg/ml; fresh medium alone 0.9 ± 0.1
Method: as §1, §2, §3
The cells are cultivated as described in Example 1. Having obtained complete confluence, the cells are used for the test. […]

[3] = lengthened peptide sequences, TSP-1 + peptide, tests as in Example 5, control 8.73 ± 0.43
[4] = lengthened peptide sequences, TSP-1 + peptide, tests as in Example 5, positive = substance inhibited
[5] = 1 μg/ml TSP-1 + peptide 1 mM, 24 hours, positive = substance inhibited, negative = substance induced apoptosis
[6] = medium with 1 μg/ml TSP-1 + peptide 1 mM, 24 hours, mean ± SD of three independent experiments, control 3.28 ± 0.55

## K-R-A-Y-V-V-M-W-K-K (KRAYVVMWLL) [SEQ ID NO 5]
HUVEC [1]; [3]
  Apoptosis index [%]: 0.37 ± 0.22%
HUVEC [1]; [4]
  Inhibition index [%]: +95.8 ± 2.6%

## K-R-E-Y-V-V-M-W-K-K (LREYVVMWKK) [SEQ ID NO 6]
HUVEC [1]; [3]
  Apoptosis index [%]: 0.48 ± 0.22%
HUVEC [1]; [4]
  Inhibition index [%]: +94.5 ± 2.5%

## M-V-V-Y-F-R (MVVYFR) [SEQ ID NO 12]
HUVEC [1]; [5]
  Inhibition index [%]: −34.1 ± 6.2%
HUVEC [1]; [6]
  Apoptosis index [%]: 4.40 ± 0.53%

## R-A-Y-V-V-A (RAYVVA) [SEQ ID NO 13]
HUVEC [1]; [5]
  Inhibition index [%]: −51.8 ± 6.0%
HUVEC [1]; [6]
  Apoptosis index [%]: 4.98 ± 0.3%

## R-A-Y-V-V-M (RAYVVM) [SEQ ID NO 1]
HUVEC [1]; [5]
  Inhibition index [%]: +75.3 ± 7.5%
HUVEC [1]; [6]
  Apoptosis index [%]: 0.83 ± 0.24%

## R-C-Y-V-V-M (RCYVVM) [SEQ ID NO 17]
HUVEC [1]; [5]
  Inhibition index [%]: −326.5 ± 3.6%
HUVEC [1]; [6]
  Apoptosis index [%]: 13.97 ± 0.35%

## R-D-Y-V-V-M (RDYVVM) [SEQ ID NO 11]
HUVEC [1]; [5]
  Inhibition index [%]: +37.3 ± 14.0%
HUVEC [1]; [6]
  Apoptosis index [%]: 2.12 ± 0.47%

## R-E-Y-V-V-M (REYVVM) [SEQ ID NO 4]
HUVEC [1]; [5]
  Inhibition index [%]: +69.0 ± 8.9%
HUVEC [1]; [6]
  Apoptosis index [%]: 1.04 ± 0.30%

## R-G-Y-V-V-M (RGYVVM) [SEQ ID NO 7]
HUVEC [1]; [5]
  Inhibition index [%]: +46.4 ± 11.1%
HUVEC [1]; [6]
  Apoptosis index [%]: 1.83 ± 0.37%

## R-L-Y-V-V-M (RLYVVM) [SEQ ID NO 14]
HUVEC [1]; [5]
  Inhibition index [%]: −95.4 ± 6.1%
HUVEC [1]; [6]
  Apoptosis index [%]: 6.41 ± 0.63%

## R-M-Y-V-V-M (RMYVVM) [SEQ ID NO 8]
HUVEC [1]; [5]
  Inhibition index [%]: +44.2 ± 11.6%
HUVEC [1]; [6]
  Apoptosis index [%]: 1.84 ± 0.39%

## R-N-Y-V-V-M (RNYVVM) [SEQ ID NO 10]
HUVEC [1]; [5]
  Inhibition index [%]: +39.5 ± 15.8%
HUVEC [1]; [6]
  Apoptosis index [%]: 2.06 ± 0.53%

## R-P-Y-V-V-M (RPYVVM) [SEQ ID NO 15]
HUVEC [1]; [5]
  Inhibition index [%]: −72.8 ± 6.4%
HUVEC [1]; [6]
  Apoptosis index [%]: 5.67 ± 0.54%

## R-S-Y-V-V-M (RSYVVM) [SEQ ID NO 16]
HUVEC [1]; [5]
  Inhibition index [%]: −108.4 ± 3.7%
HUVEC [1]; [6]
  Apoptosis index [%]: 6.86 ± 0.37%

## R-T-Y-V-V-M (RTYVVM) [SEQ ID NO 9]
HUVEC [1]; [5]
  Inhibition index [%]: +44.5 ± 9.8%
HUVEC [1]; [6]
  Apoptosis index [%]: 1.86 ± 0.36%

## R-W-Y-V-V-M (RWYVVM) [SEQ ID NO 2]
HUVEC [1]; [5]
  Inhibition index [%]: +61.9 ± 7.7%
HUVEC [1]; [6]
  Apoptosis index [%]: 1.30 ± 0.26%

## R-Y-Y-V-V-M (RYYVVM) [SEQ ID NO 3]
HUVEC [1]; [5]
  Inhibition index [%]: +74.7 ± 5.0%
HUVEC [1]; [6]
  Apoptosis index [%]: 0.85 ± 0.17%

## TSP-1: thrombospondin 1, apoptosis-inducing substance added at 1 μg/ml to HUVEC medium as inductor/control
HUVEC [2]
  Apoptosis rate (%) after 24 h: 3.0 ± 0.4%

## m-v-v-y-a-r ([dM][dV][dV][dY][dA][dR]) [SEQ ID NO 19]
HUVEC [1]; [5]
  Inhibition index [%]: −247.1 ± 5.4%
HUVEC [1]; [6]
  Apoptosis index [%]: 11.4 ± 0.63%

## m-v-v-y-f-r ([dM][dV][dV][dY][dF][dR]) [SEQ ID NO 18]
HUVEC [1]; [5]
  Inhibition index [%]: −345.1 ± 5.1%
HUVEC [1]; [6]
  Apoptosis index [%]: 14.6 ± 0.75%

From US9017693B2, “Apoptotically active peptides” (Cytotools AG, priority 2001, dated 2015)
